Results published in the NIST ThermoML archive (doi:10.1021/acs.jced.7b01006).

Experiment: xn = mol fraction of the nth substance listed
Conditions: 100 kPa, Liquid; for electrical conductivity: Alternating current cell with electrodes; for viscosity: Falling or rolling sphere viscometry; for mass density: Vibrating tube method

CCCCn1cc[n+](C)c1C.N#C[S-] [1-butyl-2,3-dimethylimidazolium thiocyanate] + CC#N
Conditions | electrical conductivity [S/m] | mass density [kg/m3] | viscosity [mPa·s]
288.15 K, x1 = 0.1001 | 4.72 | 888.99 | 16.94
288.15 K, x1 = 0.2004 | 4.01 | 951.31 | 38.93
288.15 K, x1 = 0.2999 | 3.35 | 995.07 | 67.12
288.15 K, x1 = 0.4003 | 1.19 | 1026.63 | 102.7
288.15 K, x1 = 0.5001 | 0.765 | 1038.63 | 145.4
288.15 K, x1 = 0.5999 | 0.599 | 1050.73 | 193.9
288.15 K, x1 = 0.6999 | 0.429 | 1062.95 | 249.1
288.15 K, x1 = 0.8002 | 0.358 | 1068.26 | 310.4
288.15 K, x1 = 0.9002 | 0.24 | 1075.99 | 377.8
288.15 K, x1 = 1 | 0.106 | 1084.2 | 452.7
293.15 K, x1 = 0.1001 | 5.01 | 885.19 | 11.74
293.15 K, x1 = 0.2004 | 4.34 | 948.02 | 27.08
293.15 K, x1 = 0.2999 | 3.71 | 991.9 | 46.77
293.15 K, x1 = 0.4003 | 1.45 | 1024 | 71.58
293.15 K, x1 = 0.5001 | 0.919 | 1036.16 | 100.9
293.15 K, x1 = 0.5999 | 0.728 | 1048.16 | 134.8
293.15 K, x1 = 0.6999 | 0.531 | 1060.42 | 172.9
293.15 K, x1 = 0.8002 | 0.458 | 1066.14 | 214.7
293.15 K, x1 = 0.9002 | 0.316 | 1073.56 | 260.4
293.15 K, x1 = 1 | 0.153 | 1081.11 | 311.3
298.15 K, x1 = 0.1001 | 5.31 | 881.36 | 8.229
298.15 K, x1 = 0.2004 | 4.69 | 944.6 | 18.85
298.15 K, x1 = 0.2999 | 4.05 | 988.57 | 32.07
298.15 K, x1 = 0.4003 | 1.71 | 1021.27 | 49.45
298.15 K, x1 = 0.5001 | 1.12 | 1033.49 | 69.9
298.15 K, x1 = 0.5999 | 0.891 | 1045.66 | 93.7
298.15 K, x1 = 0.6999 | 0.654 | 1057.9 | 119.9
298.15 K, x1 = 0.8002 | 0.57 | 1063.84 | 148.9
298.15 K, x1 = 0.9002 | 0.39 | 1071.37 | 181
298.15 K, x1 = 1 | 0.217 | 1078.2 | 218
303.15 K, x1 = 0.1001 | 5.61 | 877.5 | 5.854
303.15 K, x1 = 0.2004 | 5.03 | 941.34 | 12.95
303.15 K, x1 = 0.2999 | 4.42 | 985.32 | 22.58
303.15 K, x1 = 0.4003 | 2.01 | 1018.59 | 34.51
303.15 K, x1 = 0.5001 | 1.32 | 1030.79 | 49.24
303.15 K, x1 = 0.5999 | 1.06 | 1043.17 | 66.62
303.15 K, x1 = 0.6999 | 0.795 | 1055.17 | 85.89
303.15 K, x1 = 0.8002 | 0.697 | 1061.75 | 106.9
303.15 K, x1 = 0.9002 | 0.497 | 1068.94 | 130.3
303.15 K, x1 = 1 | 0.293 | 1075.18 | 157.9
